Measurements published in US9371320B2, “Heterocyclic compound” (TAKEDA PHARMACEUTICAL COMPANY LIMITED, priority 2012, dated 2016).

Key:
[1] = biological target: T1, JAK1 (Homo sapiens, UniProt P23458); assay: JAK1 enzyme inhibition test (LANCE method); assay type: biochemical; conditions: test compound 1 μM; read-out: Inhibitory rate (%) JAK1 1 μM
T1 construct: purchased Invitrogen
Outline: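 TR-FRET (LANCE) kinase assay using JAK1 at 187.5 ng/mL, ULight-JAK1 peptide at 300 nM and ATP at 150 μM, given as solution concentrations before mixing. Buffer was 50 mM HEPES pH 7.5 with 10 mM MgCl2 and 2 mM DTT, and the reaction ran 1 h at room temperature. Eu anti-phosphotyrosine signal at 665 nm was expressed relative to a no-enzyme well, taken as 100% inhibition.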

[2] = biological target: T2, Tyk2 (Homo sapiens, UniProt P29597); assay: Tyk2 enzyme inhibition test (LANCE method); assay type: biochemical; conditions: test compound 1 μM; read-out: Inhibitory rate (%) Tyk2 1 μM
T2 construct: purchased Invitrogen
T2 sequence (P29597 whole entry): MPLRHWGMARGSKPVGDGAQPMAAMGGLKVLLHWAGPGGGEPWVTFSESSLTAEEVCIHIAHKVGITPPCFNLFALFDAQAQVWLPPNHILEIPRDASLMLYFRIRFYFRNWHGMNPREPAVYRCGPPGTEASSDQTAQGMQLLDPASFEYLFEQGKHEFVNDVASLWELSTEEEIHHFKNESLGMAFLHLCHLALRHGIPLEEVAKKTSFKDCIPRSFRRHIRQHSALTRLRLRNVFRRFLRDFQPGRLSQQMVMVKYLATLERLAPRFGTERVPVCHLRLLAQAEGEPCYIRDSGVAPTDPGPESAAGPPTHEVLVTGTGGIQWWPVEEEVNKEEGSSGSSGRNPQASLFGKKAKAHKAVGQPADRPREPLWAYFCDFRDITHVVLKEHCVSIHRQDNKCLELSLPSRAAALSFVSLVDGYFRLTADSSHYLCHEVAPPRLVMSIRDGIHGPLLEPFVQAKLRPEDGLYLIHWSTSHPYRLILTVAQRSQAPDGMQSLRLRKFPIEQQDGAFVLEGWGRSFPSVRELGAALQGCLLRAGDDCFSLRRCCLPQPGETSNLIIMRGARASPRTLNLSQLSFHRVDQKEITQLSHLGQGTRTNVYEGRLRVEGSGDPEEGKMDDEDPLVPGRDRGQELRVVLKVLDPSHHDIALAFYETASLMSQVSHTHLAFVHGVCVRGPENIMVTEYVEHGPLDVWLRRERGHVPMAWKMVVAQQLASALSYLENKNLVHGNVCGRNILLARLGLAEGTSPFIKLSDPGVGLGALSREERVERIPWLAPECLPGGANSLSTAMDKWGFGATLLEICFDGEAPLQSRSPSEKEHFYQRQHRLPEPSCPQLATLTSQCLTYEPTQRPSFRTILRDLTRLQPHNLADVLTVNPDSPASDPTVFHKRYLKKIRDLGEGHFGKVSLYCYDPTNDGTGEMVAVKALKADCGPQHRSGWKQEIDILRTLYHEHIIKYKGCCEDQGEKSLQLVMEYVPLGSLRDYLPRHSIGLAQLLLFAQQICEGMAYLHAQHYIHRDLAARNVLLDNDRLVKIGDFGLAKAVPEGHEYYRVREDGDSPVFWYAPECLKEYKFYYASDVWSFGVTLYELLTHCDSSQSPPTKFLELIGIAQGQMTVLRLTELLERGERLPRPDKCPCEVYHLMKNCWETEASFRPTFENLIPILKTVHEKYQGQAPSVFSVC
Outline: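 Recombinant Tyk2 (375 ng/mL stock) with ULight-JAK1 peptide (300 nM stock) and ATP (30 μM stock) in HEPES pH 7.5/MgCl2/EGTA/DTT buffer, 1 h at room temperature. Stopped with EDTA plus Eu-anti-phosphotyrosine antibody; TR-FRET read at 665 nm after 1 h. No-enzyme wells define 100% inhibition.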

T1 sequence (P23458 whole entry): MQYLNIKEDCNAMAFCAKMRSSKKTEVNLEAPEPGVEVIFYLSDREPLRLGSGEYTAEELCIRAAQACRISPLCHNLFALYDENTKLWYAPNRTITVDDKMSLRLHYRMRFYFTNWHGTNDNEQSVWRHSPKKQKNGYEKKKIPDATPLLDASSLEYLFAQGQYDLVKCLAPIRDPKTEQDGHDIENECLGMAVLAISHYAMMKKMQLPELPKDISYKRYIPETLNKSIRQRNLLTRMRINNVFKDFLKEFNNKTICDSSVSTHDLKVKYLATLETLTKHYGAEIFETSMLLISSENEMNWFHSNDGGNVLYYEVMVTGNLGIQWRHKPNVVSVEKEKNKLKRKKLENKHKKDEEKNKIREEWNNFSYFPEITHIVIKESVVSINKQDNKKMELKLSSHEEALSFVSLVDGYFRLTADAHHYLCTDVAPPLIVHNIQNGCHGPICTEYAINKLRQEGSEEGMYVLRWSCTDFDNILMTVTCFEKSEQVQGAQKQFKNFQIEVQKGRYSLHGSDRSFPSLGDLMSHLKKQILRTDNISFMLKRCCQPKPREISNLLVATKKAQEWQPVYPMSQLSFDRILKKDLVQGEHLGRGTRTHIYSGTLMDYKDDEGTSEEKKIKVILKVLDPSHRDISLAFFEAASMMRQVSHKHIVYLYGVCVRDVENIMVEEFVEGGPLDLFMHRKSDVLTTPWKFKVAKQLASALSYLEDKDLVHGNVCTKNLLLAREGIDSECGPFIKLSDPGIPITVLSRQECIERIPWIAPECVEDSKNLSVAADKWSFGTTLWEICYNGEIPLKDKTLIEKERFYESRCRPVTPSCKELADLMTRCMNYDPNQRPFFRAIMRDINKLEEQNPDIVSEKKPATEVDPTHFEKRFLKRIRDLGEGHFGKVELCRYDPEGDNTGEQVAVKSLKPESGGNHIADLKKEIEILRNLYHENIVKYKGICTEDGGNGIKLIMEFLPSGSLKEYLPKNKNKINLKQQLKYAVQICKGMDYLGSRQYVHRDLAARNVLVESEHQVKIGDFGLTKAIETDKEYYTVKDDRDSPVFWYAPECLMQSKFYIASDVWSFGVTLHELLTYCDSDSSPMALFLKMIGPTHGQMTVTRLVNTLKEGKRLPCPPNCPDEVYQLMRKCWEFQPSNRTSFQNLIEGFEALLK

inhibition at 1 µM [1] [%] | inhibition at 1 µM [2] [%] | SMILES
97 | 99 | N#CCc1cc(-c2nn(-c3c(F)cccc3F)c3c(Cl)c[nH]c(=O)c23)cs1 [Example 152, (4-(7-chloro-1-(2,6-difluorophenyl)-4-oxo-4,5-dihydro-1H-pyrazolo[4,3-c]pyridin-3-yl)-2-thienyl)acetonitrile]
98 | 98 | NC(=O)Cc1cc(-c2nn(-c3c(F)cccc3F)c3c(Cl)c[nH]c(=O)c23)cs1 [Example 160, 2-(4-(7-chloro-1-(2,6-difluorophenyl)-4-oxo-4,5-dihydro-1H-pyrazolo[4,3-c]pyridin-3-yl)-2-thienyl)acetamide]
79 | 99 | O=c1[nH]cc(Cl)c2c1c(-c1ccc(N3CCOCC3)cc1)nn2-c1c(F)cccc1F [Example 161, 7-chloro-1-(2,6-difluorophenyl)-3-(4-(morpholin-4-yl)phenyl)-1,5-dihydro-4H-pyrazolo[4,3-c]pyridin-4-one]
99 | 99 | CNC(=O)c1cc(-c2nn(-c3c(F)cccc3F)c3c(Cl)c[nH]c(=O)c23)cs1 [Example 162, 4-(7-chloro-1-(2,6-difluorophenyl)-4-oxo-4,5-dihydro-1H-pyrazolo[4,3-c]pyridin-3-yl)-N-methylthiophene-2-carboxamide]
53 | 97 | N#CCOc1ccc(-c2nn(-c3c(F)cccc3F)c3c(Cl)c[nH]c(=O)c23)cc1 [Example 167, (4-(7-chloro-1-(2,6-difluorophenyl)-4-oxo-4,5-dihydro-1H-pyrazolo[4,3-c]pyridin-3-yl)phenoxy)acetonitrile]
46 | 97 | O=c1[nH]cc(Cl)c2c1c(-c1cccc(OCCO)c1)nn2-c1c(F)cccc1F [Example 168, 7-chloro-1-(2,6-difluorophenyl)-3-(3-(2-hydroxyethoxyl)phenyl)-1,5-dihydro-4H-pyrazolo[4,3-c]pyridin-4-one]
79 | 99 | NC(=O)COc1ccc(-c2nn(-c3c(F)cccc3F)c3c(Cl)c[nH]c(=O)c23)cc1 [Example 169, 2-(4-(7-chloro-1-(2,6-difluorophenyl)-4-oxo-4,5-dihydro-1H-pyrazolo[4,3-c]pyridin-3-yl)phenoxy)acetamide]

The remaining lines, values behind:

SMILES | inhibition at 1 µM [1] [%] | inhibition at 1 µM [2] [%]
CCC(CC)n1nc(-c2csc(C(N)=O)c2)c2c(=O)[nH]ccc21 [Example 149, 4-(4-oxo-1-(pentan-3-yl)-4,5-dihydro-1H-pyrazolo[4,3-c]pyridin-3-yl)thiophene-2-carboxamide] | 100 | 99
CCC(COC)n1nc(-c2csc(C(N)=O)c2)c2c(=O)[nH]ccc21 (stereo not shown) [Example 150, 4-(1-(1-methoxybutan-2-yl)-4-oxo-4,5-dihydro-1H-pyrazolo[4,3-c]pyridin-3-yl)thiophene-2-carboxamide] | 99 | 98
O=c1[nH]ccc2c1c(-c1cn[nH]c1)nn2-c1c(F)cccc1F [Example 151, 1-(2,6-difluorophenyl)-3-(1H-pyrazol-4-yl)-1,5-dihydro-4H-pyrazolo[4,3-c]pyridin-4-one] | 98 | 98
CNC(=O)c1cc(-c2nn(C3CCCC3)c3cc[nH]c(=O)c23)cs1 [Example 155, 4-(1-cyclopentyl-4-oxo-4,5-dihydro-1H-pyrazolo[4,3-c]pyridin-3-yl)-N-methylthiophene-2-carboxamide] | 100 | 99
O=C(NC1CC1)c1cc(-c2nn(C3CCCC3)c3cc[nH]c(=O)c23)cs1 [Example 156, 4-(1-cyclopentyl-4-oxo-4,5-dihydro-1H-pyrazolo[4,3-c]pyridin-3-yl)-N-cyclopropylthiophene-2-carboxamide] | 100 | 100
O=C(NCCO)c1cc(-c2nn(C3CCCC3)c3cc[nH]c(=O)c23)cs1 [Example 157, 4-(1-cyclopentyl-4-oxo-4,5-dihydro-1H-pyrazolo[4,3-c]pyridin-3-yl)-N-(2-hydroxyethyl)thiophene-2-carboxamide] | 100 | 99
NC(=O)Cc1cccc(-c2nn(C3CCCC3)c3cc[nH]c(=O)c23)c1 [Example 158, 2-(3-(1-cyclopentyl-4-oxo-4,5-dihydro-1H-pyrazolo[4,3-c]pyridin-3-yl)phenyl)acetamide] | 91 | 91
NS(=O)(=O)c1cccc(-c2nn(C3CCCC3)c3cc[nH]c(=O)c23)c1 [Example 159, 3-(1-cyclopentyl-4-oxo-4,5-dihydro-1H-pyrazolo[4,3-c]pyridin-3-yl)benzenesulfonamide] | 91 | 87
N#CC1(NC(=O)c2cc(-c3nn(-c4c(F)cccc4F)c4c(Cl)c[nH]c(=O)c34)cs2)CC1 [Example 163, 4-(7-chloro-1-(2,6-difluorophenyl)-4-oxo-4,5-dihydro-1H-pyrazolo[4,3-c]pyridin-3-yl)-N-(1-cyanocyclopropyl)thiophene-2-carboxamide] | 98 | 100
O=c1[nH]cc(Cl)c2c1c(-c1ccc(N3CCOCC3)nc1)nn2-c1c(F)cccc1F [Example 164, 7-chloro-1-(2,6-difluorophenyl)-3-(6-(morpholin-4-yl)pyridin-3-yl)-1,5-dihydro-4H-pyrazolo[4,3-c]pyridin-4-one] | 66 | 99
N#Cc1c[nH]c(=O)c2c(-c3csc(C(N)=O)c3)nn(C3CCCC3)c12 [Example 165, 4-(7-cyano-1-cyclopentyl-4-oxo-4,5-dihydro-1H-pyrazolo[4,3-c]pyridin-3-yl)thiophene-2-carboxamide] | 96 | 98
Cn1cc(NC(=O)c2cc(-c3nn(-c4c(F)cccc4F)c4c(Cl)c[nH]c(=O)c34)cs2)cn1 [Example 166, 4-(7-chloro-1-(2,6-difluorophenyl)-4-oxo-4,5-dihydro-1H-pyrazolo[4,3-c]pyridin-3-yl)-N-(1-methyl-1H-pyrazol-4-yl)thiophene-2-carboxamide] | 98 | 100
NC(=O)c1cc(-c2nn(C3CCC(=O)CC3)c3cc[nH]c(=O)c23)cs1 [Example 170, 4-(4-oxo-1-(4-oxocyclohexyl)-4,5-dihydro-1H-pyrazolo[4,3-c]pyridin-3-yl)thiophene-2-carboxamide] | 99 | 98
NC(=O)c1cc(-c2nn(C3CCC(O)CC3)c3cc[nH]c(=O)c23)cs1 (stereo not shown) [Example 171, 4-(1-(4-hydroxycyclohexyl)-4-oxo-4,5-dihydro-1H-pyrazolo[4,3-c]pyridin-3-yl)thiophene-2-carboxamide] | 100 | 100
NC(=O)c1cc(-c2nn(C3CCC(O)(c4ccccc4)CC3)c3cc[nH]c(=O)c23)cs1 (stereo not shown) [Example 172, 4-(1-(4-hydroxy-4-phenylcyclohexyl)-4-oxo-4,5-dihydro-1H-pyrazolo[4,3-c]pyridin-3-yl)thiophene-2-carboxamide] | 99 | 97
NS(=O)(=O)c1ccc(-c2nn(C3CCC(=O)CC3)c3cc[nH]c(=O)c23)cc1 [Example 173, 4-(4-oxo-1-(4-oxocyclohexyl)-4,5-dihydro-1H-pyrazolo[4,3-c]pyridin-3-yl)benzenesulfonamide] | 99 | 96
